Source: ChEMBL document CHEMBL1201862, “PubChem BioAssay data set” (2004)
“And” between values parts separate entries of the source, which are not always exact repeats. Identical values can stand only once. Values belong to the compound of their own block, whether it stands above or below them. The source made the active and inactive calls.

Columns and labels:
HEK293 = test: cells; assay type: functional, cell-based; conditions: Homo sapiens;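 further: HEK-293-T cells carrying an NF-kB luciferase reporter; cells exposed to compound overnight before the viability read; potency for loss of cell viability meaning cytotoxicity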
[1] = reduction of Shn3 3'UTR-driven luciferase in osteoblasts – cell-based, Clone20 osteoblasts, firefly luciferase, cherry-picked, dose response (AID 624132); assay type: functional;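 further: firefly luciferase luminescence from reporter carrying the Shn3 3'UTR in osteoblasts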
[2] = non-specific 3'UTR reporter inhibition in Clone20-Shn3RL – cell-based, Renilla luciferase, cherry-picked, counter-screen for Shn3 inhibitor project, dose response (AID 624133); assay type: functional
[3] = molecular target: Megakaryocyte-associated tyrosine-protein kinase (Homo sapiens, UniProt P42679); assay type: functional;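 further: affinity measured as one member of a kinase panel (Navigating the Kinome) against MATK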
[4] = molecular target: Tyrosine-protein kinase SYK (Homo sapiens, UniProt P43405); assay type: functional
[5] = molecular target: Mitogen-activated protein kinase 8 (Homo sapiens, UniProt P45983); assay type: functional;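 further: value comes from one member of a kinome-wide kinase profiling panel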
Aurora kinase A = Aurora kinase A (Homo sapiens, UniProt O14965); assay type: functional;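 further: value from the Navigating the Kinome kinase panel profiling, panel entry STK6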
[6] = molecular target: MAP kinase-activated protein kinase 5 (Homo sapiens, UniProt Q8IW41); assay type: functional;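 further: measured as one member of a kinome panel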
Sequence of MAP kinase-activated protein kinase 5 (Q8IW41 whole entry): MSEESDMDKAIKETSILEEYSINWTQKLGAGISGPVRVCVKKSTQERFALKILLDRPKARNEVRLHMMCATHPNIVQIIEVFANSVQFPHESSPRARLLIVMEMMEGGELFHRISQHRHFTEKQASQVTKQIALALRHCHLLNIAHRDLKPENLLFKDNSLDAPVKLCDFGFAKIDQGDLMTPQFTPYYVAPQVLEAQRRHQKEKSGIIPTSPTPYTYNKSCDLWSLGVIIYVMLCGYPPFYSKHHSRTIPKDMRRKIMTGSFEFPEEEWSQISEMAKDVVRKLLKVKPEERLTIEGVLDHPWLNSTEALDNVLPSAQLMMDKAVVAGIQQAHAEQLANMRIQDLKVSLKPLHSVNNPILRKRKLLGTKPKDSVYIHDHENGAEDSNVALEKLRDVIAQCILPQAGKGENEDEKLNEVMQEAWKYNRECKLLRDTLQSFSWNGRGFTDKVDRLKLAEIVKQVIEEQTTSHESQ

[7] = molecular target: Cell division cycle 7-related protein kinase (Homo sapiens, UniProt O00311); assay type: functional;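 further: value obtained from a kinome-wide kinase panel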
[8] = molecular target: Serine/threonine-protein kinase PAK 1 (Homo sapiens, UniProt Q13153); assay type: functional
Sequence of Serine/threonine-protein kinase PAK 1 (Q13153 whole entry): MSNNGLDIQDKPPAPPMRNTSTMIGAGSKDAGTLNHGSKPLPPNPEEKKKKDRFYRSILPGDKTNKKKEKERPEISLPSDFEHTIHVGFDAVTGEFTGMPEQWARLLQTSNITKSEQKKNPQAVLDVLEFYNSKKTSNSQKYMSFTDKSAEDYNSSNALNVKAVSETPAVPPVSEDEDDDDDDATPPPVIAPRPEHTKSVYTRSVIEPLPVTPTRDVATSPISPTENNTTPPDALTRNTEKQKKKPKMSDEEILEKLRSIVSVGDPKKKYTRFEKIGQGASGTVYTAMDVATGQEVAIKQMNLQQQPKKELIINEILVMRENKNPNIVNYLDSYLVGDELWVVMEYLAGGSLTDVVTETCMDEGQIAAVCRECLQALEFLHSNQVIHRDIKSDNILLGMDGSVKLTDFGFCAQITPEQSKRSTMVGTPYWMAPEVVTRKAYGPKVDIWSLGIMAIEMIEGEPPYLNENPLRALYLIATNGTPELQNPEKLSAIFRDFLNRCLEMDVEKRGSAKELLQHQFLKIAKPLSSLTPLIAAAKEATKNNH

[9] = molecular target: Tyrosine-protein kinase JAK3 (Homo sapiens, UniProt P52333); assay type: functional
[10] = molecular target: Serine/threonine-protein kinase N2 (Homo sapiens, UniProt Q16513); assay type: functional
[11] = molecular target: Serine/threonine-protein kinase TAO1 (Homo sapiens, UniProt Q7L7X3); assay type: functional
[12] = molecular target: Tyrosine-protein kinase Blk (Homo sapiens, UniProt P51451); assay type: functional;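 further: obtained as one member of a kinome-wide kinase assay panel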
[13] = molecular target: Homeodomain-interacting protein kinase 2 (Homo sapiens, UniProt Q9H2X6); assay type: functional;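 further: measured within a kinome-wide kinase profiling panel, HIPK2 being one panel member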
[14] = molecular target: High affinity nerve growth factor receptor (Homo sapiens, UniProt P04629); assay type: functional;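 further: NTRK1 tested as one member of a kinome-wide profiling panel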
Insulin receptor = Insulin receptor (Homo sapiens, UniProt P06213); assay type: functional;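 further: insulin receptor kinase tested as one member of a kinome-wide kinase panel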
[15] = molecular target: Mitogen-activated protein kinase kinase kinase 20 (Homo sapiens, UniProt Q9NYL2); assay type: functional
Sequence of Mitogen-activated protein kinase kinase kinase 20 (Q9NYL2 whole entry): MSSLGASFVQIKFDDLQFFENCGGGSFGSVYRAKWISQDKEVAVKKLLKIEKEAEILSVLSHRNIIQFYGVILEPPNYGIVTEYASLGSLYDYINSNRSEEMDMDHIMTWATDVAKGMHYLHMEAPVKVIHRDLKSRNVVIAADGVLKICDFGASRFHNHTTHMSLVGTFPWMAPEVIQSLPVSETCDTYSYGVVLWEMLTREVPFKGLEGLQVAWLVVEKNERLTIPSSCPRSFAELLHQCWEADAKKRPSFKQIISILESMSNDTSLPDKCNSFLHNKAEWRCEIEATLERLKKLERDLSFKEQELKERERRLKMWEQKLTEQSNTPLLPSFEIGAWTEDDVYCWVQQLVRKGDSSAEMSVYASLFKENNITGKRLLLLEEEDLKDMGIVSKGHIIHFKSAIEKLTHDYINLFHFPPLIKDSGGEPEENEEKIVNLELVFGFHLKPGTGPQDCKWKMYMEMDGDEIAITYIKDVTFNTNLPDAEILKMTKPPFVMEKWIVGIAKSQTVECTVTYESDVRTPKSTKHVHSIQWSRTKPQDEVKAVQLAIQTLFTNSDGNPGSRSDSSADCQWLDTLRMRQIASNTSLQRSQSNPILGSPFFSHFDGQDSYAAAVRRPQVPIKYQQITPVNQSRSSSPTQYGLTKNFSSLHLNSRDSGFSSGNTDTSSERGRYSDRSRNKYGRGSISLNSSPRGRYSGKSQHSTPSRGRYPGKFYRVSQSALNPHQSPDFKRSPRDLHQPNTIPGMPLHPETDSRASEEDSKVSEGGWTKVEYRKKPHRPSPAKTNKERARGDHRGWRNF

[16] = molecular target: Non-receptor tyrosine-protein kinase TYK2 (Homo sapiens, UniProt P29597); assay type: functional
Sequence of Non-receptor tyrosine-protein kinase TYK2 (P29597 whole entry): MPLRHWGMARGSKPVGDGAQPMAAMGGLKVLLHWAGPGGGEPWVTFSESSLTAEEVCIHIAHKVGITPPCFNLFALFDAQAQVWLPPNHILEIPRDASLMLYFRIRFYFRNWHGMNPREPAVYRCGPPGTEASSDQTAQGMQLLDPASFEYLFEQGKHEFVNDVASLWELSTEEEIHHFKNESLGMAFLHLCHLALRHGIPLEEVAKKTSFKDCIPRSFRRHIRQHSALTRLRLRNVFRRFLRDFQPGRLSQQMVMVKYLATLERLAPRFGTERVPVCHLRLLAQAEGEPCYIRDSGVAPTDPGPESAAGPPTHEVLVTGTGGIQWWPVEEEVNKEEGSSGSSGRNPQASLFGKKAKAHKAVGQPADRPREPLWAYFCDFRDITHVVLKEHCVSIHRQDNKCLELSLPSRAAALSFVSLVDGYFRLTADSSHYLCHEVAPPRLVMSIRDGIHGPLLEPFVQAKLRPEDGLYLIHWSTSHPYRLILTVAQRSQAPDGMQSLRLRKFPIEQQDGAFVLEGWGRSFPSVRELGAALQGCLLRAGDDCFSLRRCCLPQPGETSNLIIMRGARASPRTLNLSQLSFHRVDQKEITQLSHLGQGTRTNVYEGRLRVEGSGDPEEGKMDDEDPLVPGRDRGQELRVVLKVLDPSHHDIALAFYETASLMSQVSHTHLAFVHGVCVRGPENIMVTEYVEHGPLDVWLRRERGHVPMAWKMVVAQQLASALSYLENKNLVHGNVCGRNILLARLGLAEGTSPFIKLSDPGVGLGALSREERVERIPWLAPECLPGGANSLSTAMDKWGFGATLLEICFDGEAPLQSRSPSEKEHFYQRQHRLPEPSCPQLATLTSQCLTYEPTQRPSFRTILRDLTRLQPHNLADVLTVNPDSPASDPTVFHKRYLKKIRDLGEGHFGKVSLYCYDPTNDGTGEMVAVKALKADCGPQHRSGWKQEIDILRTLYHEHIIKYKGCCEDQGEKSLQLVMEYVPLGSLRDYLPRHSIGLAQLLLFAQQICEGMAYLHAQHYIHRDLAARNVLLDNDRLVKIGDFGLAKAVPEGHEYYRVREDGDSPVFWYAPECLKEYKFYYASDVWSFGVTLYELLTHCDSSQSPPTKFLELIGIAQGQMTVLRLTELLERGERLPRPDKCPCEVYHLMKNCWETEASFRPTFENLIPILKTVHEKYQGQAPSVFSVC

[17] = molecular target: Protein kinase C gamma type (Homo sapiens, UniProt P05129); assay type: functional
Activated CDC42 kinase 1 = Activated CDC42 kinase 1 (Homo sapiens, UniProt Q07912); test: Navigating the Kinome. Panel member name: ACK1; assay type: functional
[18] = molecular target: Calcium/calmodulin-dependent protein kinase type II subunit beta (Homo sapiens, UniProt Q13554); assay type: functional
Sequence of Calcium/calmodulin-dependent protein kinase type II subunit beta (Q13554 whole entry): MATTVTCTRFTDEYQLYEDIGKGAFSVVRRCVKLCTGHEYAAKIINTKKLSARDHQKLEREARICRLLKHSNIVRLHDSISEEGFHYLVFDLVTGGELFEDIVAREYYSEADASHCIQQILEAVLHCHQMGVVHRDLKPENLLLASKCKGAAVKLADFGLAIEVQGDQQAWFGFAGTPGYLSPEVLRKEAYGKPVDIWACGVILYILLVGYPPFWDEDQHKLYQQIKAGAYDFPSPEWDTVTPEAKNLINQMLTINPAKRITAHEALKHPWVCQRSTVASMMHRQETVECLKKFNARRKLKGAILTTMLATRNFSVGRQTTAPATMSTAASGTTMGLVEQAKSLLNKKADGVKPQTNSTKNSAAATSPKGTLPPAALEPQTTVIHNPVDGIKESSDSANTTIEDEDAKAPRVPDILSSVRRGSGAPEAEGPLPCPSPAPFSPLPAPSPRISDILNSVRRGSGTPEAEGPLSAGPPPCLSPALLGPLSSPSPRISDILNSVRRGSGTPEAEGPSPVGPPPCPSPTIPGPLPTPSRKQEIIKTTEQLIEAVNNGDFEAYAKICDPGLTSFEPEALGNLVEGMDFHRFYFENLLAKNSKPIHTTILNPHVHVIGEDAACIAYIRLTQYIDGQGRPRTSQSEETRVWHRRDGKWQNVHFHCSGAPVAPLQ

[19] = molecular target: G protein-coupled receptor kinase 5 (Homo sapiens, UniProt P34947); test: Navigating the Kinome. Panel member name: GPRK5; assay type: functional
[20] = molecular target: Dual specificity tyrosine-phosphorylation-regulated kinase 1B (Homo sapiens, UniProt Q9Y463); test: Navigating the Kinome. Panel member name: DYRK1B; assay type: functional
Sequence of Dual specificity tyrosine-phosphorylation-regulated kinase 1B (Q9Y463 whole entry): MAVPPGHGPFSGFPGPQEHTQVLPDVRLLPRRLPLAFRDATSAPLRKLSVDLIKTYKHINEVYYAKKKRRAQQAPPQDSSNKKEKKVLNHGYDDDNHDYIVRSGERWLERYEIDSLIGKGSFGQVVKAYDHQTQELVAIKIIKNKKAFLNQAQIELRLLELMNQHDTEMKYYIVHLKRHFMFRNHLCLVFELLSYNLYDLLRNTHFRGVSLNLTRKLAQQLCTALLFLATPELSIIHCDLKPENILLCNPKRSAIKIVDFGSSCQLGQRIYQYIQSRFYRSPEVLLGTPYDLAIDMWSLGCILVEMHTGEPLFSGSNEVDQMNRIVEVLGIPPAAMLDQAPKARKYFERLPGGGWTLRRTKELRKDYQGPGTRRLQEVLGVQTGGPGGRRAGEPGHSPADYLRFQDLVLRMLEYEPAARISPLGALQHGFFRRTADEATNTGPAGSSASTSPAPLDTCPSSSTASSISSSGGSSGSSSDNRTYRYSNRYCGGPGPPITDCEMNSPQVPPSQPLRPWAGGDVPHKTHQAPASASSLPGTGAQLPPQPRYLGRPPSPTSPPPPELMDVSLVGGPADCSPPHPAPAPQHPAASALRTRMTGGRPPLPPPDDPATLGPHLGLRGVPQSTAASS

[21] = molecular target: Platelet-derived growth factor receptor alpha (Homo sapiens, UniProt P16234); test: Navigating the Kinome. Panel member name: PDGFRA; assay type: functional
Aurora kinase B = Aurora kinase B (Homo sapiens, UniProt Q96GD4); assay type: functional
Sequence of Aurora kinase B (Q96GD4 whole entry): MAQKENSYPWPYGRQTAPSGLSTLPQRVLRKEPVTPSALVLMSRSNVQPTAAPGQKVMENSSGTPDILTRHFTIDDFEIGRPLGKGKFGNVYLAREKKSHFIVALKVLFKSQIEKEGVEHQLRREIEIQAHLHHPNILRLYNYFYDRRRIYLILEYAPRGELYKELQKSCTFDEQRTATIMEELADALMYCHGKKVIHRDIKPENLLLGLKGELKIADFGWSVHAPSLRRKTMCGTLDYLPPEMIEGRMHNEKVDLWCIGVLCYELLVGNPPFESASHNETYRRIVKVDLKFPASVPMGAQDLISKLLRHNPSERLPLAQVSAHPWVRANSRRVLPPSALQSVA

[22] = molecular target: RAC-alpha serine/threonine-protein kinase (Homo sapiens, UniProt P31749); assay type: functional;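 further: AKT1 affinity measured as one member of a kinome-wide kinase profiling panel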
[23] = molecular target: Tyrosine-protein kinase Fer (Homo sapiens, UniProt P16591); assay type: functional;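 further: FER tested as one member of a kinome panel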
[24] = molecular target: Calcium/calmodulin-dependent protein kinase type 1 (Homo sapiens, UniProt Q14012); assay type: functional
[25] = molecular target: Homeodomain-interacting protein kinase 4 (Homo sapiens, UniProt Q8NE63); assay type: functional
[26] = molecular target: Cyclin-dependent kinase 1 (Homo sapiens, UniProt P06493); assay type: functional;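 further: Kinome-wide panel profiling, with the target listed as panel member CDC2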
[27] = molecular target: Cyclin-dependent kinase 7 (Homo sapiens, UniProt P50613); assay type: functional;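 further: value comes from a kinome-wide kinase profiling panel in which CDK7 is one member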
Sequence of Cyclin-dependent kinase 7 (P50613 whole entry): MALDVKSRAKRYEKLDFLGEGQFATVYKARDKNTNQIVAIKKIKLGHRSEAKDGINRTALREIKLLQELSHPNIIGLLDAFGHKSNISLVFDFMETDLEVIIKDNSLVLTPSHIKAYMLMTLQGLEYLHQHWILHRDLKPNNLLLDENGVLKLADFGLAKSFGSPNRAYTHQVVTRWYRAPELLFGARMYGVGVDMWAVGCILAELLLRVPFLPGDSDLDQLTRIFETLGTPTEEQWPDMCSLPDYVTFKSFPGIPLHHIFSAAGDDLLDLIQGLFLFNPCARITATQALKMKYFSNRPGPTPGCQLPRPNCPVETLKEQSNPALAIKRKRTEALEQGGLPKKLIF

[28] = molecular target: STE20-like serine/threonine-protein kinase (Homo sapiens, UniProt Q9H2G2); assay type: functional
[29] = molecular target: cAMP-dependent protein kinase catalytic subunit alpha (Homo sapiens, UniProt P17612); assay type: functional
[30] = molecular target: Dual specificity mitogen-activated protein kinase kinase 2 (Homo sapiens, UniProt P36507); test: Navigating the Kinome. Panel member name: MAP2K2; assay type: functional
[31] = molecular target: Inhibitor of nuclear factor kappa-B kinase subunit epsilon (Homo sapiens, UniProt Q14164); test: Navigating the Kinome. Panel member name: IKBKE; assay type: functional
[32] = molecular target: Leukocyte tyrosine kinase receptor (Homo sapiens, UniProt P29376); test: Navigating the Kinome. Panel member name: LTK; assay type: functional
[33] = system: Streptococcus sp. 'group A'; test: Streptococcus pyogenes SK(-)GAS viability under kanamycin – luminescence, BacTiterGlo, confirmation, counter-screen for streptokinase expression inhibitor project, dose response (AID 1900); assay type: functional, organism-based
[34] = molecular target: T1, Calpain-2 catalytic subunit (Sus scrofa, UniProt P43367); test: m-calpain protease blockers, concentration series – biochemical, fluorogenic peptide substrate, dose response (AID 1420); assay type: functional
T1 sequence (P43367 whole entry): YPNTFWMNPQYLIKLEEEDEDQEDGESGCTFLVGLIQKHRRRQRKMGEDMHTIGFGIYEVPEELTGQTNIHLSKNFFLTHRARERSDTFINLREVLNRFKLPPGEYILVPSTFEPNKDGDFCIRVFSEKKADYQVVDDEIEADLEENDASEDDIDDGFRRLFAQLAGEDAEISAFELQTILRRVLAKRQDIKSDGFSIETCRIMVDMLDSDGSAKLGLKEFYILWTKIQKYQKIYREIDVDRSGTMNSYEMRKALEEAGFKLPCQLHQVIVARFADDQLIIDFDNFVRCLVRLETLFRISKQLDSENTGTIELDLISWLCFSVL

[35] = molecular target: 1-acylglycerol-3-phosphate O-acyltransferase ABHD5/Perilipin-5 (Homo sapiens, UniProt Q00G26+Q8WTS1); test: Luminescence-based biochemical high throughput dose response assay for inhibitors of the interaction of the lipase co-activator protein, abhydrolase domain containing 5 (ABHD5) with perilipin-5 (MLDP; PLIN5) (2K validation set). [Related pubchem assays (depositor defined):AID493035, AID493241]
Cytochrome P450 2D6 = Cytochrome P450 2D6 (Homo sapiens, UniProt P10635);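 further: CYP2D6 member of a cytochrome P450 panel assay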

SMILES: O=C1C=C(N2CCOCC2)c2ccccc2C1=O
IC50 (HEK293): 13.6 µM (active) | AC50 [1]: 7.16 µM (active) | AC50 [2]: 8.28 µM (active)

Ki [3]: > 2 µM (inactive) | Ki [4]: > 1.58 µM (inactive) | Ki [5]: > 5.01 µM (inactive) | Ki (Aurora kinase A): > 1.58 µM (inactive) | Ki [6]: > 1.58 µM (inactive) | Ki [7]: > 1.26 µM (inactive) | Ki [8]: > 10 µM (inactive) | Ki [9]: > 3.98 µM (inactive) | Ki [10]: > 6.31 µM (inactive) | Ki [11]: > 7.94 µM (inactive) | Ki [12]: > 1.58 µM (inactive) | Ki [13]: > 3.16 µM (inactive) | Ki [14]: > 2.51 µM (inactive) | Ki (Insulin receptor): > 5.01 µM (inactive) | Ki [15]: > 7.94 µM (inactive) | Ki [16]: > 2 µM (inactive) | Ki [17]: > 7.94 µM (inactive) | Ki (Activated CDC42 kinase 1): > 3.98 µM (inactive) | Ki [18]: > 7.94 µM (inactive) | Ki [19]: > 3.98 µM (inactive) | Ki [20]: 1 µM (active) | Ki [21]: > 2.51 µM (inactive) | Ki (Aurora kinase B): > 3.16 µM (inactive) | Ki [22]: > 7.94 µM (inactive) | Ki [23]: > 1.58 µM (inactive) | Ki [24]: > 6.31 µM (inactive) | Ki [25]: > 7.94 µM (inactive) | Ki [26]: 2 µM (active) | Ki [27]: 1 µM (active) | Ki [28]: > 10 µM (inactive) | Ki [29]: > 3.16 µM (inactive) | Ki [30]: > 3.98 µM (inactive) | Ki [31]: > 3.16 µM (inactive) | Ki [32]: > 2.51 µM (inactive)
SMILES: N#Cc1ccc2[nH]c(O)c(-c3ccc(CN4CCOCC4)cn3)c2c1 [AZD-1080]

SMILES: CCc1oc2ccccc2c1C(=O)c1cc(Br)c(O)c(Br)c1 [BENZBROMARONE]
EC50 [33]: 7.44 µM (active) | IC50 [34]: 7.97 µM (not active) and 4.88 µM (not active) | IC50 [35]: 18.8 µM (inactive) | AC50 (Cytochrome P450 2D6): inactive
